Patent US4676822A, “Fluid fertilizers containing thiophosphoryl triamide” (Tennessee Valley Authority, priority 1986, dated 1987)
Where “and” joins values, the source holds several entries; their conditions need not be identical. Identical values can stand only once. Like-named read-outs stand apart in the source and are kept apart here.

Experiments:
[1] = tested on: urease; conditions: prior art; cited from earlier work
[2] = 25° C., water partial pressure 12.73 mm of Hg; cited from earlier work
[3] = compared with PPDA; cited from earlier work
[4] = 25° C., cited from earlier work; for first-order reaction half-life: UAN (31-0-0)
[5] = tested on: urease; assay: Urease inhibition tests with TPTA and PPDA in fluid fertilizers, banded soil system (urease-active Hastings silt loam); assay type: biochemical; conditions: for average % urea unhydrolyzed, 3 days / % urea unhydrolyzed, 3 days: 3 days incubation at 25° C.; for average % urea unhydrolyzed, 3 days / average % urea unhydrolyzed, 6 days: average of A and B samples; for % urea unhydrolyzed, 3 days / % urea unhydrolyzed, 6 days: single sample; for average % urea unhydrolyzed, 6 days / % urea unhydrolyzed, 6 days: 6 days incubation at 25° C.
Protocol: Samples of UAN (31-0-0), 1 g, and (36-0-0), 0.66 g containing approximately 0.38 g urea and 0.041 g of TPTA were prepared by dissolving solid TPTA in 31-0-0 and 36-0-0 of the compositions shown in Table I, supra. Identical samples containing PPDA and without either inhibitor were prepared to serve as references for purposes of data comparison.
Urease-active soil (Hastings silt loam) was moistened to a moisture content of 20 percent and preincubated at room temperature for two days. Plexiglass containers (6×6×6 cm) were one-half filled with soil and packed to a bulk density of 1.0 g/cm^3. The 31-0-0 and 36-0-0 samples containing TPTA and PPDA as well as samples containing no inhibitor were distributed evenly in a narrow band 6 cm along the soil surface. The containers were filled with soil and again packed to a bulk density of 1.0 g/cm^3. The containers were incubated at 25° C. for the desired reaction period. After incubation the soil from each container was thoroughly mixed, and a 10-g sample was extracted with 100 mL of 2M KCl containing 5 ppm phenylmercuric acetate to prevent urea hydrolysis during handling [L. A. Douglass and J. M. Bremner, Soil Sci. Soc. Am. Proc. 34, 859-862 (1970)]. The urea in the extracts was determined colorimetrically as a measure of unhydrolyzed urea. The results of three-day and six-day incubation tests are illustrated in Table II infra; and as noted supra, plotted in FIG. 1.

[6] = solid mixtures with urea, 25° C.; cited from earlier work

NP(N)(=O)O [DAPA, diamidophosphoric acid]
urease inhibition (in words) [1]: are urease inhibitors

NP(=O)(O)O [MAPA, monoamido phosphoric acid]
urease inhibition (in words) [1]: are urease inhibitors

NP(N)(N)=O [PTA, phosphoryl triamide]
reaction half-life in solid mixtures with urea [2]: 4.3 h
stability in urea melt [3]: much less stable in urea melt than PPDA

NP(N)(=O)Oc1ccccc1 [PPDA, phenyl phosphorodiamidate, reference compound]
first-order reaction half-life ([4]; pH 6.46): 146 h
first-order reaction half-life ([4]; pH 8.14): 28.8 h
decomposition rate constant ([4]; UAN (36-0-0) saturated with PPDA): 10.2 percent decomposition per day
decomposition rate constant ([4]; UAS (29-0-0-5S) saturated with PPDA): 20.5 percent decomposition per day
average % urea unhydrolyzed, 3 days ([5]; UAN (31-0-0)): 83.36%
% urea unhydrolyzed, 3 days ([5]; UAN (31-0-0)): 83.64% and 83.09%
average % urea unhydrolyzed, 6 days ([5]; UAN (31-0-0)): 12.61%
% urea unhydrolyzed, 6 days ([5]; UAN (31-0-0)): 14.03% and 11.20%
average % urea unhydrolyzed, 3 days ([5]; UAN (36-0-0)): 85.73% and 84%
% urea unhydrolyzed, 3 days ([5]; UAN (36-0-0)): 86.22% and 81.24%
average % urea unhydrolyzed, 6 days ([5]; UAN (36-0-0)): 11.32% and 11%
% urea unhydrolyzed, 6 days ([5]; UAN (36-0-0)): 12.10% and 10.53%
urease inhibition (in words) [1]: extremely potent inhibitor of urease activity
half-life of PPDA in mixtures with urea [6]: 0.9 years
